# Source: US20170283862A1, “GENETIC TESTING FOR PREDICTING RESISTANCE OF KLEBSIELLA SPECIES AGAINST ANTIMICROBIAL AGENTS” (priority 2014, published 2017)
# System: K. pneumoniae isolates
# Assay: Gene dosage effects: AUC of normalized median coverage per gene, resistant vs susceptible isolates
# Design: unit not given here
# Conditions: best MIC break
# Method: Since a potential reason for drug resistance is gene duplication, gene dose dependency was evaluated. For each sample the genomic coverage for each position was determined using BED Tools. Gene ranges were extracted from the reference assemblies NC_009648.gff and NC_016612.gff and the normalized median coverage per gene was calculated. To compare low- and high-resistance isolates the best area under the curve (AUC) value was computed.
# To estimate the difference in coverage we calculated AUC values for the normalized median coverage per gene in the two groups.
# [1] = gene KPN_00957: 1081235-1081342
# [2] = gene KPN_01607: 1784144-1785004
# [3] = gene KPN_01776: 1957110-1958672
# [4] = gene KPN_01784: 1966562-1967182
# [5] = gene KPN_01790: 1972135-1973631
# [6] = gene KPN_04541: 4973659-4974345
# [7] = gene KPN_02272: 2484450-2485832
# [8] = gene KPN_03336: 3652949-3653470
Compound,BEST_BREAK [1],BEST_BREAK [2],BEST_BREAK [3],BEST_BREAK [4],BEST_BREAK [5],BEST_BREAK [6],BEST_BREAK (gene rmlC: 2723257-2723811),BEST_BREAK (gene ygbI: 1783401-1784123),BEST_BREAK (gene ygbJ: 1782199-1783101),BEST_BREAK (gene ygbK: 1780922-1782187),BEST_BREAK [7],BEST_BREAK [8],BEST_BREAK (gene KPN_04540: 4971080-4973572),BEST_BREAK (gene rmlC: 2715683-2716237),BEST_BREAK (gene KPN_00596: 673027-673989),BEST_BREAK (gene KPN_01766: 1947966-1948751),BEST_BREAK (gene KPN_01767: 1948966-1949805),BEST_BREAK (gene KPN_01772: 1953630-1954052),BEST_BREAK (gene KPN_01773: 1954090-1955208),BEST_BREAK (gene stbA: 300128-300664)
Ampicillin/Sulbactam,32,64.1,64.1,64.1,64.1,64.1,64.1,64.1,64.1,64.1,–,–,–,–,–,–,–,–,–,–
Amoxicillin/K Clavulanate,64,8,–,32,–,32,64.1,8,–,–,64,32,32,64.1,–,–,–,–,–,–
Gentamicin,1,1,1,1,–,–,–,–,–,–,–,–,–,–,2,–,–,–,–,–
Piperacillin/Tazobactam,8,128,128,128,128,64,256.1,128,128,128,256.1,256,–,–,–,128,128,128,64,128
CC1(C)S[C@@H]2[C@H](NC(=O)[C@H](N)c3ccccc3)C(=O)N2[C@H]1C(=O)O [Ampicillin],128.1,128.1,–,–,–,–,–,–,–,–,–,–,–,–,–,–,–,–,–,–
